# Results taken from ChEMBL document CHEMBL3885881, “DrugMatrix”.
# Organism: Rattus norvegicus
# Test: DrugMatrix - Regimen: Daily Repeat
# Format: toxicity, organism-based, Sprague-Dawley
# Parameters: regimen Daily Repeat, gender Male, age 6-8 weeks
# Details: in vivo, sc, route subcutaneous, […]; for ABSOLUTE BASOPHIL / ABSOLUTE EOSINOPHIL / ABSOLUTE LYMPHOCYTE / ABSOLUTE MONOCYTE / ABSOLUTE SEGMENTED NEUTROPHIL / BASOPHIL / EOSINOPHIL / ERYTHROCYTE COUNT / HEMATOCRIT / HEMOGLOBIN / LEUKOCYTE COUNT / LYMPHOCYTE / MEAN CORPUSCULAR HEMOGLOBIN / MEAN CORPUSCULAR HEMOGLOBIN CONCENTRATION / MEAN CORPUSCULAR VOLUME / MONOCYTE / NEUTROPHIL / NUCLEATED RED BLOOD CELLS / PLATELET COUNT: tissue Blood; for ALANINE AMINOTRANSFERASE / ALBUMIN / ALKALINE PHOSPHATASE / ASPARTATE AMINOTRANSFERASE / BLOOD UREA NITROGEN / CARBON DIOXIDE / CHLORIDE / CHOLESTEROL / CREATINE PHOSPHOKINASE / CREATININE / GLUCOSE / LACTATE DEHYDROGENASE / LIPASE / PHOSPHORUS / POTASSIUM / SODIUM / TOTAL BILIRUBIN / TOTAL PROTEIN / URIC ACID: tissue Plasma
# [1] = 0 mg/kg, 72 h, dose level Control, time 3 day
# [2] = 0 mg/kg, 120 h, dose level Control, time 5 day
# [3] = 50 mg/kg, 72 h, dose level Low, time 3 day
smiles,measurement,setting,value
CC(C)(c1ccc(O)cc1)c1ccc(O)cc1 [BISPHENOL A],ABSOLUTE BASOPHIL,[1],0 CELLS/uL
same,ABSOLUTE EOSINOPHIL,[1],0 CELLS/uL
same,ABSOLUTE LYMPHOCYTE,[1],9782.33 CELLS/uL
same,ABSOLUTE MONOCYTE,[1],114.67 CELLS/uL
same,ABSOLUTE SEGMENTED NEUTROPHIL,[1],753 CELLS/uL
same,BASOPHIL,[1],0%
same,EOSINOPHIL,[1],0%
same,ERYTHROCYTE COUNT,[1],5.14 x10E6/uL
same,HEMATOCRIT,[1],32.12%
same,HEMOGLOBIN,[1],13.13 G/DL
same,LEUKOCYTE COUNT,[1],10.65 x10E3/uL
same,LYMPHOCYTE,[1],91.83%
same,MEAN CORPUSCULAR HEMOGLOBIN,[1],25.83 pg
same,MEAN CORPUSCULAR HEMOGLOBIN CONCENTRATION,[1],41.28 G/DL
same,MEAN CORPUSCULAR VOLUME,[1],62.43 fL
same,MONOCYTE,[1],1%
same,NEUTROPHIL,[1],7.17%
same,NUCLEATED RED BLOOD CELLS,[1],0.17 /100WBC
same,PLATELET COUNT,[1],657.83 x10E3/uL
same,ALANINE AMINOTRANSFERASE,[1],60.33 u/L
same,ALBUMIN,[1],3.83 G/DL
same,ALKALINE PHOSPHATASE,[1],366.33 u/L
same,ASPARTATE AMINOTRANSFERASE,[1],104.5 u/L
same,BLOOD UREA NITROGEN,[1],12.33 mg/dL
same,CARBON DIOXIDE,[1],23.17 mmol/L
same,CHLORIDE,[1],96.67 MEQ/L
same,CHOLESTEROL,[1],73.17 mg/dL
same,CREATINE PHOSPHOKINASE,[1],545.83 u/L
same,CREATININE,[1],0.26 mg/dL
same,GLUCOSE,[1],144.33 mg/dL
same,LACTATE DEHYDROGENASE,[1],147.5 u/L
same,LIPASE,[1],9.33 u/L
same,PHOSPHORUS,[1],10.83 mg/dL
same,POTASSIUM,[1],5.68 MEQ/L
same,SODIUM,[1],138.83 MEQ/L
same,TOTAL BILIRUBIN,[1],0.17 mg/dL
same,TOTAL PROTEIN,[1],5.42 G/DL
same,URIC ACID,[1],0.65 mg/dL
same,ABSOLUTE BASOPHIL,[2],0 CELLS/uL
same,ABSOLUTE EOSINOPHIL,[2],43.33 CELLS/uL
same,ABSOLUTE LYMPHOCYTE,[2],12883 CELLS/uL
same,ABSOLUTE MONOCYTE,[2],166.83 CELLS/uL
same,ABSOLUTE SEGMENTED NEUTROPHIL,[2],1290.17 CELLS/uL
same,BASOPHIL,[2],0%
same,EOSINOPHIL,[2],0.33%
same,ERYTHROCYTE COUNT,[2],5.79 x10E6/uL
same,HEMATOCRIT,[2],36.37%
same,HEMOGLOBIN,[2],14.17 G/DL
same,LEUKOCYTE COUNT,[2],14.38 x10E3/uL
same,LYMPHOCYTE,[2],89.17%
same,MEAN CORPUSCULAR HEMOGLOBIN,[2],24.48 pg
same,MEAN CORPUSCULAR HEMOGLOBIN CONCENTRATION,[2],38.98 G/DL
same,MEAN CORPUSCULAR VOLUME,[2],62.83 fL
same,MONOCYTE,[2],1.17%
same,NEUTROPHIL,[2],9.33%
same,NUCLEATED RED BLOOD CELLS,[2],0.5 /100WBC
same,PLATELET COUNT,[2],1267.33 x10E3/uL
same,ALANINE AMINOTRANSFERASE,[2],53.5 u/L
same,ALBUMIN,[2],3.82 G/DL
same,ALKALINE PHOSPHATASE,[2],342.33 u/L
same,ASPARTATE AMINOTRANSFERASE,[2],83.67 u/L
same,BLOOD UREA NITROGEN,[2],13.17 mg/dL
same,CARBON DIOXIDE,[2],28.17 mmol/L
same,CHLORIDE,[2],101.5 MEQ/L
same,CHOLESTEROL,[2],70.83 mg/dL
same,CREATINE PHOSPHOKINASE,[2],656.67 u/L
same,CREATININE,[2],0.17 mg/dL
same,GLUCOSE,[2],171.33 mg/dL
same,LACTATE DEHYDROGENASE,[2],169 u/L
same,LIPASE,[2],9.17 u/L
same,PHOSPHORUS,[2],12.88 mg/dL
same,POTASSIUM,[2],6.54 MEQ/L
same,SODIUM,[2],141.2 MEQ/L
same,TOTAL BILIRUBIN,[2],0.18 mg/dL
same,TOTAL PROTEIN,[2],5.68 G/DL
same,URIC ACID,[2],2.02 mg/dL
same,ABSOLUTE BASOPHIL,[3],0 CELLS/uL
same,ABSOLUTE EOSINOPHIL,[3],47.33 CELLS/uL
same,ABSOLUTE LYMPHOCYTE,[3],13197 CELLS/uL
same,ABSOLUTE MONOCYTE,[3],0 CELLS/uL
same,ABSOLUTE SEGMENTED NEUTROPHIL,[3],655.67 CELLS/uL
same,BASOPHIL,[3],0%
same,EOSINOPHIL,[3],0.33%
same,ERYTHROCYTE COUNT,[3],5.26 x10E6/uL
same,HEMATOCRIT,[3],33.73%
same,HEMOGLOBIN,[3],13.37 G/DL
same,LEUKOCYTE COUNT,[3],13.9 x10E3/uL
same,LYMPHOCYTE,[3],94.67%
same,MEAN CORPUSCULAR HEMOGLOBIN,[3],25.43 pg
same,MEAN CORPUSCULAR HEMOGLOBIN CONCENTRATION,[3],39.67 G/DL
same,MEAN CORPUSCULAR VOLUME,[3],64.23 fL
same,MONOCYTE,[3],0%
same,NEUTROPHIL,[3],5%
same,NUCLEATED RED BLOOD CELLS,[3],0 /100WBC
same,PLATELET COUNT,[3],1085.33 x10E3/uL
same,ALANINE AMINOTRANSFERASE,[3],58.33 u/L
same,ALBUMIN,[3],4.1 G/DL
same,ALKALINE PHOSPHATASE,[3],341 u/L
same,ASPARTATE AMINOTRANSFERASE,[3],86.67 u/L
same,BLOOD UREA NITROGEN,[3],11.33 mg/dL
same,CARBON DIOXIDE,[3],27.67 mmol/L
same,CHLORIDE,[3],96.5 MEQ/L
same,CHOLESTEROL,[3],65.67 mg/dL
same,CREATINE PHOSPHOKINASE,[3],317.33 u/L
same,CREATININE,[3],0.21 mg/dL
same,GLUCOSE,[3],134 mg/dL
same,LACTATE DEHYDROGENASE,[3],126.67 u/L
same,LIPASE,[3],12.33 u/L
same,PHOSPHORUS,[3],10.53 mg/dL
same,POTASSIUM,[3],5.77 MEQ/L
same,SODIUM,[3],139.05 MEQ/L
same,TOTAL BILIRUBIN,[3],0.17 mg/dL
same,TOTAL PROTEIN,[3],5.33 G/DL
same,URIC ACID,[3],0.37 mg/dL
